# Test results: PubChem BioAssay AID210 (DTP/NCI, 2004)
# Values joined by “and” are separate entries in the source; they are usually repeats but may differ in a detail not shown here. Equal values may be shown once. Inconclusive results and toxic doses are left out.
# System: CD2F1 mice, ip Colon 26 adenocarcinoma, median survival T/C
# Test: NCI In Vivo Anticancer Drug Screen. Data for tumor model Colon 26 Adenocarcinoma (intraperitoneal) in CD2F1 (CDF1) mice
# Conditions: endpoint: median survival time, higher = longer survival
# Description: The antitumor activity of compounds was measured in mice bearing transplantable tumors. Survival or tumor size were measured and the results are expressed as the measurement made in the treated group (T) divided by the measurement made in the vehicle treated control group (C). The tumor model used in this assay is Colon 26 Adenocarcinoma (intraperitoneal) in CD2F1 (CDF1) mice
# [1] = dose: 12.5 mg/kg/injection, schedule: Q04DX003 (ip), vehicle: saline with Tween-80
# [2] = dose: 25.0 mg/kg/injection, schedule: Q04DX003 (ip), vehicle: saline with Tween-80
# [3] = dose: 50.0 mg/kg/injection, schedule: Q04DX003 (ip), vehicle: saline with Tween-80
# [4] = dose: 100.0 mg/kg/injection, schedule: Q04DX003 (ip), vehicle: saline with Tween-80
# [5] = dose: 200.0 mg/kg/injection, schedule: Q04DX003 (ip), vehicle: saline with Tween-80
# [6] = dose: 400.0 mg/kg/injection, schedule: Q04DX003 (ip), vehicle: saline with Tween-80
smiles,measurement,setting,value
Cc1ccc(NC(=O)Oc2ccc(Br)cc2Br)c([N+](=O)[O-])c1,T/C,[1],97 % of control
same,T/C,[2],100 % of control
same,T/C,[3],100 % of control
same,T/C,[4],107 % of control
same,T/C,[5],117 % of control
same,T/C,[6],123 % of control
NC(=O)c1cn(C2OC(CO)C(O)C2O)c2ncnc(N)c12 (stereo unspecified),T/C,"dose: 2.0 mg/kg/injection, schedule: Q04DX003 (ip), vehicle: Klucel (hydroxypropylcellulose) (HPC)",156 % of control
C=C(NC(=O)C(=C)NC(=O)c1csc(C2=NC3c4csc(n4)C4NC(=O)c5csc(n5)C(C(C)(O)C(C)O)NC(=O)C5CSC(=N5)/C(=C/C)NC(=O)C(C(C)O)NC(=O)c5csc(n5)C3(CC2)NC(=O)C(C)NC(=O)C(=C)NC(=O)C(C)NC(=O)C(C(C)CC)NC2C=Cc3c(C(C)O)cc(nc3C2O)C(=O)OC4C)n1)C(N)=O (stereo unspecified),T/C,"dose: 5.0 mg/kg/injection, schedule: Q04DX003 (ip), vehicle: Klucel (hydroxypropylcellulose) (HPC)",120 % of control
same,T/C,"dose: 10.0 mg/kg/injection, schedule: Q04DX003 (ip), vehicle: Klucel (hydroxypropylcellulose) (HPC)",90 % of control
same,T/C,"dose: 20.0 mg/kg/injection, schedule: Q04DX003 (ip), vehicle: Klucel (hydroxypropylcellulose) (HPC)",100 % of control
same,T/C,"dose: 40.0 mg/kg/injection, schedule: Q04DX003 (ip), vehicle: Klucel (hydroxypropylcellulose) (HPC)",110 % of control
same,T/C,"dose: 80.0 mg/kg/injection, schedule: Q04DX003 (ip), vehicle: Klucel (hydroxypropylcellulose) (HPC)",102 % of control
same,T/C,"dose: 160.0 mg/kg/injection, schedule: Q04DX003 (ip), vehicle: Klucel (hydroxypropylcellulose) (HPC)",92 % of control
COc1cccc2c1C(=O)c1c(O)c3c(c(O)c1C2=O)C[C@@](O)(C(=O)CO)C[C@@H]3OC1CC(N)C(O)C(C)O1 (stereo partly specified),T/C,"dose: 0.25 mg/kg/injection, schedule: Q01DX009 (ip), vehicle: saline",151 % of control
same,T/C,"dose: 0.38 mg/kg/injection, schedule: Q04DX003 (ip), vehicle: water",113 % of control
same,T/C,"dose: 0.5 mg/kg/injection, schedule: Q01DX009 (ip), vehicle: saline",154 % of control
same,T/C,"dose: 0.75 mg/kg/injection, schedule: Q04DX003 (ip), vehicle: water",117 % of control
same,T/C,"dose: 1.0 mg/kg/injection, schedule: Q01DX009 (ip), vehicle: saline",243 % of control
same,T/C,"dose: 1.5 mg/kg/injection, schedule: Q04DX003 (ip), vehicle: water",106 % of control
same,T/C,"dose: 1.5 mg/kg/injection, schedule: Q07DX003 (iv), vehicle: saline",111 % of control
same,T/C,"dose: 1.73 mg/kg/injection, schedule: Q04DX003 (ip), vehicle: water",157 % of control
same,T/C,"dose: 2.0 mg/kg/injection, schedule: Q01DX009 (ip), vehicle: saline",310 % of control
same,T/C,"dose: 2.0 mg/kg/injection, schedule: Q04DX003 (ip), vehicle: saline",278 % of control
same,T/C,"dose: 3.0 mg/kg/injection, schedule: Q04DX003 (ip), vehicle: water",91 % of control
same,T/C,"dose: 3.0 mg/kg/injection, schedule: Q07DX003 (iv), vehicle: saline",97 % of control
same,T/C,"dose: 3.3 mg/kg/injection, schedule: Q07DX002 (iv), vehicle: saline",105 % of control
same,T/C,"dose: 3.7 mg/kg/injection, schedule: Q07DX003 (iv), vehicle: saline",112 % of control
same,T/C,"dose: 4.0 mg/kg/injection, schedule: Q04DX003 (ip), vehicle: saline",334 % of control
same,T/C,"dose: 4.3 mg/kg/injection, schedule: Q07DX002 (iv), vehicle: saline",106 % of control
same,T/C,"dose: 4.5 mg/kg/injection, schedule: Q07DX002 (iv), vehicle: saline",108 % of control
same,T/C,"dose: 4.5 mg/kg/injection, schedule: Q07DX002 (sc), vehicle: saline",101 % of control
same,T/C,"dose: 4.8 mg/kg/injection, schedule: Q04DX003 (ip), vehicle: water",152 % of control
same,T/C,"dose: 4.8 mg/kg/injection, schedule: Q07DX003 (iv), vehicle: saline",107 % of control and 108 % of control
same,T/C,"dose: 5.4 mg/kg/injection, schedule: Q07DX002 (iv), vehicle: saline",111 % of control
same,T/C,"dose: 5.8 mg/kg/injection, schedule: Q07DX003 (iv), vehicle: saline",115 % of control
same,T/C,"dose: 6.0 mg/kg/injection, schedule: Q04DX003 (ip), vehicle: water",120 % of control
same,T/C,"dose: 6.3 mg/kg/injection, schedule: Q07DX002 (ip), vehicle: saline",197 % of control
same,T/C,"dose: 6.3 mg/kg/injection, schedule: Q07DX002 (iv), vehicle: saline",105 % of control and 106 % of control
same,T/C,"dose: 6.3 mg/kg/injection, schedule: Q07DX003 (iv), vehicle: saline",113 % of control and 114 % of control and 115 % of control
same,T/C,"dose: 6.5 mg/kg/injection, schedule: Q07DX002 (iv), vehicle: saline",122 % of control
same,T/C,"dose: 7.3 mg/kg/injection, schedule: Q07DX002 (iv), vehicle: saline",117 % of control
same,T/C,"dose: 7.3 mg/kg/injection, schedule: Q07DX002 (sc), vehicle: saline",114 % of control
same,T/C,"dose: 8.1 mg/kg/injection, schedule: Q07DX002 (iv), vehicle: saline",104 % of control and 112 % of control
same,T/C,"dose: 8.1 mg/kg/injection, schedule: Q07DX003 (iv), vehicle: saline",111 % of control and 119 % of control (2×)
same,T/C,"dose: 8.7 mg/kg/injection, schedule: Q07DX002 (iv), vehicle: saline",121 % of control
same,T/C,"dose: 9.0 mg/kg/injection, schedule: Q07DX003 (iv), vehicle: saline",111 % of control
same,T/C,"dose: 9.3 mg/kg/injection, schedule: Q07DX002 (iv), vehicle: saline",109 % of control
same,T/C,"dose: 9.8 mg/kg/injection, schedule: Q07DX002 (iv), vehicle: saline",124 % of control
same,T/C,"dose: 10.5 mg/kg/injection, schedule: Q07DX002 (ip), vehicle: saline",205 % of control
same,T/C,"dose: 10.5 mg/kg/injection, schedule: Q07DX002 (iv), vehicle: saline",111 % of control and 88 % of control
same,T/C,"dose: 10.5 mg/kg/injection, schedule: Q07DX003 (iv), vehicle: saline",120 % of control and 94 % of control
same,T/C,"dose: 12.0 mg/kg/injection, schedule: Q04DX003 (ip), vehicle: water",116 % of control
same,T/C,"dose: 12.0 mg/kg/injection, schedule: Q07DX002 (iv), vehicle: saline",123 % of control
same,T/C,"dose: 12.0 mg/kg/injection, schedule: Q07DX002 (sc), vehicle: saline",122 % of control
same,T/C,"dose: 12.0 mg/kg/injection, schedule: Q07DX003 (iv), vehicle: saline",96 % of control
same,T/C,"dose: 14.0 mg/kg/injection, schedule: Q07DX002 (iv), vehicle: saline",115 % of control
same,T/C,"dose: 14.0 mg/kg/injection, schedule: Q07DX003 (iv), vehicle: saline",117 % of control
same,T/C,"dose: 19.0 mg/kg/injection, schedule: Q07DX002 (sc), vehicle: saline",155 % of control
CO[C@H]1C[C@@H]2CC[C@@H](C)[C@@](O)(O2)C(=O)C(=O)N2CCCC[C@H]2C(=O)O[C@H]([C@H](C)C[C@@H]2CC[C@@H](O)[C@H](OC)C2)CC(=O)[C@H](C)C=C(C)[C@@H](O)[C@@H](OC)C(=O)[C@H](C)C[C@H](C)/C=C/C=C/C=C1C,T/C,[1],104 % of control
same,T/C,[2],118 % of control
same,T/C,[3],116 % of control
same,T/C,[4],105 % of control
same,T/C,[5],96 % of control
O=c1c(O)c(-c2ccc(O)c(O)c2)oc2cc(O)cc(O)c12,T/C,"dose: 100.0 mg/kg/injection, schedule: Q04DX003 (ip), vehicle: other",89 % of control
same,T/C,"dose: 800.0 mg/kg/injection, schedule: Q04DX003 (ip), vehicle: other",87 % of control
C/C(=C\c1ccccc1)[N+](=O)[O-],T/C,"dose: 3.12 mg/kg/injection, schedule: Q04DX003 (ip), vehicle: Klucel (hydroxypropylcellulose) (HPC)",91 % of control
same,T/C,"dose: 6.25 mg/kg/injection, schedule: Q04DX003 (ip), vehicle: Klucel (hydroxypropylcellulose) (HPC)",97 % of control
same,T/C,"dose: 12.5 mg/kg/injection, schedule: Q04DX003 (ip), vehicle: Klucel (hydroxypropylcellulose) (HPC)",96 % of control
same,T/C,"dose: 25.0 mg/kg/injection, schedule: Q04DX003 (ip), vehicle: Klucel (hydroxypropylcellulose) (HPC)",90 % of control
CC(=O)Nc1ccc(O)c(O)c1,T/C,[1],94 % of control
same,T/C,[2],106 % of control
same,T/C,[3],96 % of control
same,T/C,[4],120 % of control
same,T/C,[5],100 % of control
same,T/C,[6],108 % of control
C=CCCC(=O)CCCC(=O)O[C@@H]1[C@@H]2[C@H](CC1(C)C)[C@H](O)[C@@]13O[C@@H]1[C@H](O)[C@@]1(CO1)[C@@]23C,T/C,"dose: 6.25 micrograms/kg/injection, schedule: Q04DX002 (ip), vehicle: Klucel (hydroxypropylcellulose) (HPC)",123 % of control
same,T/C,"dose: 25.0 micrograms/kg/injection, schedule: Q04DX002 (ip), vehicle: Klucel (hydroxypropylcellulose) (HPC)",119 % of control and 120 % of control
same,T/C,"dose: 50.0 micrograms/kg/injection, schedule: Q04DX002 (ip), vehicle: Klucel (hydroxypropylcellulose) (HPC)",102 % of control and 98 % of control
same,T/C,"dose: 100.0 micrograms/kg/injection, schedule: Q04DX002 (ip), vehicle: Klucel (hydroxypropylcellulose) (HPC)",117 % of control
same,T/C,"dose: 200.0 micrograms/kg/injection, schedule: Q04DX002 (ip), vehicle: Klucel (hydroxypropylcellulose) (HPC)",120 % of control and 88 % of control
same,T/C,"dose: 400.0 micrograms/kg/injection, schedule: Q04DX002 (ip), vehicle: Klucel (hydroxypropylcellulose) (HPC)",100 % of control
